Here are results for 21 compounds from US20110098322A1, “PREPARATION OF NOVEL 1,3-S[…] AS INHIBITORS OF SOLUBLE EPOXIDE HYDROLASE” (priority 2007, published 2011).

The test deals with T1, Recombinant human sEH (Homo sapiens, UniProt P34913).
T1 construct: made in house
T1 sequence (P34913 1-555): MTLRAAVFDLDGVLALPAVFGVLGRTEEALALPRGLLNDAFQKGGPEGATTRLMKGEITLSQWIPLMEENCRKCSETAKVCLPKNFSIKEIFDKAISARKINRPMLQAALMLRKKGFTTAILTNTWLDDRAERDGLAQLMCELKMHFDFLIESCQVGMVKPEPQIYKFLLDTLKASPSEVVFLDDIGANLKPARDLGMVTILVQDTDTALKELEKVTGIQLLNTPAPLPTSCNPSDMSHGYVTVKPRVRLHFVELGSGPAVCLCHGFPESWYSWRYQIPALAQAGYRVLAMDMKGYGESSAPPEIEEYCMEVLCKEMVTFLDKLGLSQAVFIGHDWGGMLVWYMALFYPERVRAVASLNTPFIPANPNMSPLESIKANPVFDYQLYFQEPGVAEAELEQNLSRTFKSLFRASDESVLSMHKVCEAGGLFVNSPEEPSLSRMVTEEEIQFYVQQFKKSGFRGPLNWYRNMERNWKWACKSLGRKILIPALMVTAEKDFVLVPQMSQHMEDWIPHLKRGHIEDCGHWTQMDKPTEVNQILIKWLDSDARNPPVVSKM
Description: Inhibition of human soluble epoxide hydrolase (IC50 assay). The format is biochemical. From the text:
This example provides assays and illustrates the inhibition of human soluble epoxide hydrolases by compounds of the invention.
Recombinant human sEH was produced in a baculovirus expression system and purified by affinity chromatography. The preparations were at least 97% pure as judged by SDS-PAGE and scanning densitometry. No detectable esterase or glutathione transferase activity, which can interfere with this sEH assay, was observed. Protein concentration was quantified by using the Pierce BCA assay using Fraction V bovine serum albumin as the calibrating standard.
IC50 values were determined in one of three methods. One method uses racemic 4-nitrophenyl-trans-2,3-epoxy-3-phenylpropyl carbonate as substrate. Enzyme (0.24 μM human sEH) was incubated with inhibitors for 5 min in sodium phosphate buffer, 0.1 M pH 7.4, at 30° C. before substrate introduction([S]=40 μM). Activity was assessed by measuring the appearance of the 4-nitrophenolate anion at 405 nm at 30° C. during 1 min (Spectramax 200; Molecular Devices). Assays were performed in triplicate. 1050 is a concentration of inhibitor, which reduces enzyme activity by 50%, and was determined by regression of at least five datum points with a minimum of two points in the linear region of the curve on either side of the IC50. The curve was generated from at least three separate runs, each in triplicate.
Other IC50 values were determined using the procedure described in Analytical
Biochemistry 343 66-75 (2005) using cyano(6-methoxy-naphthalen-2-yl)methyl trans-[(3-phenyloxiran-2-yl)methyl]carbonate as a substrate. Enzymes (0.96 nM for human sEH) were incubated with inhibitors ([I]=0.5-10,000 nM) for 5 min in BisTris-HCl buffer (25 mM, pH 7.0, containing 0.1 mg/ml of BSA) at 30° C. prior to substrate introduction ([S]=5 µM). Enzyme activity was measured by monitoring the appearance of 6-methoxy-2-naphthaldehyde. Assays were performed in triplicate. By definition, IC50 values are concentrations of inhibitor that reduce enzyme activity by 50%. IC50 values were determined by regression of at least five datum points, with a minimum of two datum points in the linear region of the curve on either side of the IC50 values. The curve was generated from at least three separate runs, each in triplicate.
Other inhibition potencies were determined using a fluorescent based high-throughput assay. Inhibitors in solution at 10 mM in DMSO were serially diluted by 10-fold increment in Bis/Tris HCl buffer (25 mM pH 7.0) containing 0.1 mg/mL of BSA (Buffer A). In black 96-well plates, 20 µL of the inhibitor dilution or buffer were delivered in every well, and then 130 μL of Human sEH at ˜0.4 μg/mL in solution in Buffer A were added to each well. The plate was then mixed and incubated at room temperature for 5 minutes. Fifty microliters of substrate ((3-Phenyl-oxiranyl)-acetic acid cyano-(6-methoxy-naphthalen-2-yl)-methyl ester; PHOME) at 200 μM in solution in 96:4 Buffer A:DMSO was then added to each well to give [S]final=50 μM and [E]final=˜4 nM. The plate was then mixed and incubated in the dark at room temperature (˜25° C.) for 90 min. Activity was measured by determining the relative quantity of 6-methoxy-2-naphthaldehyde formed with an excitation wavelength of 316 nm and an emission wavelength of 460 nm measured with a SpectraMax M-2 fluorometer (molecular Devices, Sunnyvale, Calif.).
Assays were conducted with the compounds indicated in the table below, as described above.
For `CC(C)c1cccc(C(C)(C)NC(=O)NC2CCN(S(C)(=O)=O)CC2)c1` [Compound 2048], the IC50 worked out at 97.6 nM.
As for `C=C(C)c1cccc(C(C)(C)NC(=O)Nc2cccc(C(=O)O)c2)c1` [Compound 1718], the figure is 7920 nM.
`C=C(C)c1cccc(C(C)(C)NC(=O)N[C@H]2CC[C@H](O)CC2)c1` [Compound 1887, trans-1-(4-Hydroxy-cyclohexyl)-3-[1-(3-isopropenyl)-1-methyl-ethyl]-urea]: the IC50 is 76.7 nM.
Take `CC(C)c1cccc(C(C)(C)NC(=O)N[C@H]2CC[C@H](Oc3ccc(C(=O)O)cc3)CC2)c1` [Compound 1956]: the IC50 was found to be 3.9 nM.
For `CC(C)c1cccc(C(C)(C)NC(=O)NCCCCc2ccccc2)c1` [Compound 1805], the IC50 stood at 11.5 nM.
With `CC(C)c1cccc(C(C)(C)NC(=O)NC2CCC(O)CC2)c1` (stereo not drawn) [Compound 1892], the IC50 stood at 393 nM.
As for `CC(C)c1cccc(C(C)(C)NC(=O)NC2CCC(C(=O)O)CC2)c1` (stereo not drawn) [Compound 1852], the figure is 555 nM.
As for `CC(C)c1cccc(C(C)(C)NC(=O)Nc2cccc(C(=O)O)c2)c1` [Compound 1719], the half-maximal inhibitory concentration (IC50) was 1610 nM.
`CC(C)c1cccc(C(C)(C)NC(=O)NCCCCCCCCCCCC(=O)O)c1` [Compound 1808]: the IC50 amounted to 52.5 nM.
Consider `CC(=O)N1CCC(NC(=O)NC(C)(C)c2cccc(C(C)C)c2)CC1` [Compound 2064], for which the IC50 amounted to 444 nM.
On to `C=C(C)c1cccc(C(C)(C)NC(=O)NC2CCCCC2)c1` [Compound 1520], for which the IC50 was 11.4 nM.
As for `CC(C)c1cccc(C(C)(C)NC(=O)NCC2CCN(C(=O)OC(C)(C)C)CC2)c1` [Compound 1806], the half-maximal inhibitory concentration (IC50) was found to be 5.6 nM.
Take `CC(C)c1cccc(C(C)(C)NC(=O)NC2CCCCC2)c1` [Compound 1713, 1-cyclohexyl-3-(2-(3-isopropylphenyl)propan-2-yl)urea]: the IC50 was determined as 7.5 nM.
On to `CC(C)c1cccc(C(C)(C)NC(=O)NC2CCN(C(=O)OC(C)(C)C)CC2)c1` [Compound 1868], for which the half-inhibitory concentration (IC50) came to 21.6 nM.
Under `CC(C)c1cccc(C(C)(C)NC(=O)N[C@H]2CC[C@H](Oc3ccc(C#N)cc3)CC2)c1` [Compound 1908, trans-1-[4-(4-Cyano-phenoxy)-cyclohexyl]-3-[1-(3-isopropyl-phenyl)-1-methyl-ethyl]-urea] stands 9.8 nM.
Under `C=C(C)c1cccc(C(C)(C)NC(=O)NCCCCCCCCCCCC)c1` [Compound 1714] stands 33 nM.
As for `CCOC(=O)c1cccc(NC(=O)NC(C)(C)c2cccc(C(C)C)c2)c1` [Compound 1717], the figure is 158 nM.
With `CCCCCCCCCCCCNC(=O)NC(C)(C)c1cccc(C(C)C)c1` [Compound 1715], the IC50 was 10.9 nM.
Consider `CC(C)c1cccc(C(C)(C)NC(=O)NCCc2ccc(C(=O)O)cc2)c1` [Compound 1807], for which the IC50 was determined as 2890 nM.
Consider `CC(C)c1cccc(C(C)(C)NC(=O)NCc2ccc(Oc3ccccc3)cc2)c1` [Compound 1955], for which the IC50 came out at 10.6 nM.
With `C=C(C)c1cccc(C(C)(C)NC(=O)Nc2cccc(C(=O)OCC)c2)c1` [Compound 1716], the IC50 amounted to 41.3 nM.

A word on the IC50: it is the concentration at which inhibition is half-maximal.
